Five compounds from ChEMBL document CHEMBL1201862, “PubChem BioAssay data set” (2004) can be followed below.

The source made the active and inactive calls.

Holding throughout (assay type): functional
Experiment [1] has as its target T1, High affinity choline transporter 1 (Homo sapiens, UniProt Q9GZV3).
T1 sequence (Q9GZV3 whole entry): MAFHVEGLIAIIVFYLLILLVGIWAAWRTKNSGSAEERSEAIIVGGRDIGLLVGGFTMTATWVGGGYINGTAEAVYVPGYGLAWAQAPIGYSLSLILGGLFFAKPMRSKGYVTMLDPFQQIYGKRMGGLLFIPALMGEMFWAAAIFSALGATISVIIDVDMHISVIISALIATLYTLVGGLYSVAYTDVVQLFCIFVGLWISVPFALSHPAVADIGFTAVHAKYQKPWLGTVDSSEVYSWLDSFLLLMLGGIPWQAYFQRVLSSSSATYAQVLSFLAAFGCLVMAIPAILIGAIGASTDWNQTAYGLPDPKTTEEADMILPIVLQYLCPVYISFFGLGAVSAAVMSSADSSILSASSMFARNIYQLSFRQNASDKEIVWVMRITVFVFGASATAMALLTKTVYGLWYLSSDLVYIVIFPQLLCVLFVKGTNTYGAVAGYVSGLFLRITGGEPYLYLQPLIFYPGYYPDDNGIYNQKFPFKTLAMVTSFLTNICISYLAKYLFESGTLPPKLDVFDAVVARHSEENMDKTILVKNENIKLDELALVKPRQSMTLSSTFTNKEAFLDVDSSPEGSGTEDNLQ
Briefly: human choline transporter blockers, potency – cell-based, 10-point CRC, membrane potential dye, dose response (AID 588401).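 Note: membrane potential dye fluorescence of choline-evoked depolarization via CHT.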

The target of experiment [2] is T1, High affinity choline transporter 1. Briefly: human choline transporter blockers, potency – cell-based, 5-point CRC, membrane potential dye, dose response (AID 504840).
The nature of experiment [3]: Luminescence Cell-Based Dose Retest to Confirm Inhibitors of Cancer Stem Cells. [Related pubchem assays (depositor defined):AID2717, AID2721]. The settings on record: Homo sapiens.
The target of experiment [4] is T2, Ubiquitin-conjugating enzyme E2 N (Homo sapiens, UniProt P61088).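 Note: Dose-response confirmation in a TR-FRET assay detecting UBC13-driven polyubiquitin chain formation, inhibition measured.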
T2 sequence (P61088 whole entry): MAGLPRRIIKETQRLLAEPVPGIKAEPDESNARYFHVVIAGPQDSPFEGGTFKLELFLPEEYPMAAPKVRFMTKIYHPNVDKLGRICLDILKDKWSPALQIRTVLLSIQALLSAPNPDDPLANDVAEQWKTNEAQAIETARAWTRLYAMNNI

Experiment [5] concerns the target Multidrug resistance protein CDR1 (Candida albicans, UniProt P43071). Briefly: Candida albicans Cdr1 pump inhibition curves – singleplex, Cherry Pick2 set, dose response (AID 623996). The settings on record: read-out: EC50_MICROM.
Experiment [6] has as its target T3, Multidrug resistance protein CDR2 (Candida albicans (strain SC5314 / ATCC MYA-2876) (Yeast), UniProt P78595). Briefly: blockers of Nile Red efflux by Candida CDR2 – S. cerevisiae AD1-8u, singleplex, Cherry Pick2 set, dose response (AID 623994). Conditions: read-out: EC50_MICROM.
Experiment [7] has as its target T3, Multidrug resistance protein CDR2. Briefly: inhibition of Nile Red efflux via Candida CDR2 – S. cerevisiae AD1-8u, singleplex, Cherry Pick1 hits, dose response (AID 588604).
Experiment [8] deals with Benomyl/methotrexate resistance protein (Candida albicans, UniProt P28873). Briefly: Candida albicans Mdr1 pump blockade titration – singleplex, Cherry Pick2 set, dose response (AID 623992). The settings on record: read-out: EC50_MICROM.
The target in experiment [9] is Melanin-concentrating hormone receptor 1 (Homo sapiens, UniProt Q99705). Briefly: Late-stage fluorescence-based counterscreen for antagonists of the G-protein coupled receptor 7 (GPR7): cell-based dose response assay to identify antagonists of the melanin-concentrating hormone receptor 1 (MCHR1) Set 6.
For experiment [10], the target named is Neuropeptides B/W receptor type 1 (Homo sapiens, UniProt P48145). Briefly: human NPBW1 receptor blockade, IC50 – cell-based, fluorescence, dose response, set 6, late-stage follow-up (AID 588583).
Experiment [11] concerns the target Tyrosine-protein kinase BTK (Homo sapiens, UniProt Q06187).
Experiment [12] deals with Cyclin-dependent kinase 8 (Homo sapiens, UniProt P49336). Briefly: Navigating the Kinome. Panel member name: CDK8.
Experiment [13] addresses Tyrosine-protein kinase Lck (Homo sapiens, UniProt P06239).
Experiment [14] concerns the target ALK tyrosine kinase receptor (Homo sapiens, UniProt Q9UM73).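 Note: ALK tested as one member of a kinase panel screen.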
For experiment [15], the target named is Platelet-derived growth factor receptor alpha (Homo sapiens, UniProt P16234). Briefly: Navigating the Kinome. Panel member name: PDGFRA.
The target of experiment [16] is Proto-oncogene tyrosine-protein kinase receptor Ret (Homo sapiens, UniProt P07949).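 Note: measured within a kinome-wide profiling panel, RET as the panel member.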
Experiment [17] concerns the target Serine/threonine-protein kinase TAO1 (Homo sapiens, UniProt Q7L7X3).
Experiment [18] concerns the target Focal adhesion kinase 1 (Homo sapiens, UniProt Q05397).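 Note: measured as one member of a kinome panel.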
The target of experiment [19] is Tyrosine-protein kinase Fyn (Homo sapiens, UniProt P06241).
Experiment [20] deals with Calcium/calmodulin-dependent protein kinase type II subunit alpha (Homo sapiens, UniProt Q9UQM7). Briefly: Navigating the Kinome. Panel member name: CAMK2A.
Experiment [21] deals with Glycogen synthase kinase-3 beta (Homo sapiens, UniProt P49841).
Experiment [22] addresses Cyclin-dependent kinase 9 (Homo sapiens, UniProt P50750).
The target of experiment [23] is Dual specificity tyrosine-phosphorylation-regulated kinase 1B (Homo sapiens, UniProt Q9Y463). Briefly: Navigating the Kinome. Panel member name: DYRK1B.
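Throughout, for AC50: cells exposed to compound for roughly 70 hours or longer before luminescence read.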

T3 sequence (P78595 whole entry): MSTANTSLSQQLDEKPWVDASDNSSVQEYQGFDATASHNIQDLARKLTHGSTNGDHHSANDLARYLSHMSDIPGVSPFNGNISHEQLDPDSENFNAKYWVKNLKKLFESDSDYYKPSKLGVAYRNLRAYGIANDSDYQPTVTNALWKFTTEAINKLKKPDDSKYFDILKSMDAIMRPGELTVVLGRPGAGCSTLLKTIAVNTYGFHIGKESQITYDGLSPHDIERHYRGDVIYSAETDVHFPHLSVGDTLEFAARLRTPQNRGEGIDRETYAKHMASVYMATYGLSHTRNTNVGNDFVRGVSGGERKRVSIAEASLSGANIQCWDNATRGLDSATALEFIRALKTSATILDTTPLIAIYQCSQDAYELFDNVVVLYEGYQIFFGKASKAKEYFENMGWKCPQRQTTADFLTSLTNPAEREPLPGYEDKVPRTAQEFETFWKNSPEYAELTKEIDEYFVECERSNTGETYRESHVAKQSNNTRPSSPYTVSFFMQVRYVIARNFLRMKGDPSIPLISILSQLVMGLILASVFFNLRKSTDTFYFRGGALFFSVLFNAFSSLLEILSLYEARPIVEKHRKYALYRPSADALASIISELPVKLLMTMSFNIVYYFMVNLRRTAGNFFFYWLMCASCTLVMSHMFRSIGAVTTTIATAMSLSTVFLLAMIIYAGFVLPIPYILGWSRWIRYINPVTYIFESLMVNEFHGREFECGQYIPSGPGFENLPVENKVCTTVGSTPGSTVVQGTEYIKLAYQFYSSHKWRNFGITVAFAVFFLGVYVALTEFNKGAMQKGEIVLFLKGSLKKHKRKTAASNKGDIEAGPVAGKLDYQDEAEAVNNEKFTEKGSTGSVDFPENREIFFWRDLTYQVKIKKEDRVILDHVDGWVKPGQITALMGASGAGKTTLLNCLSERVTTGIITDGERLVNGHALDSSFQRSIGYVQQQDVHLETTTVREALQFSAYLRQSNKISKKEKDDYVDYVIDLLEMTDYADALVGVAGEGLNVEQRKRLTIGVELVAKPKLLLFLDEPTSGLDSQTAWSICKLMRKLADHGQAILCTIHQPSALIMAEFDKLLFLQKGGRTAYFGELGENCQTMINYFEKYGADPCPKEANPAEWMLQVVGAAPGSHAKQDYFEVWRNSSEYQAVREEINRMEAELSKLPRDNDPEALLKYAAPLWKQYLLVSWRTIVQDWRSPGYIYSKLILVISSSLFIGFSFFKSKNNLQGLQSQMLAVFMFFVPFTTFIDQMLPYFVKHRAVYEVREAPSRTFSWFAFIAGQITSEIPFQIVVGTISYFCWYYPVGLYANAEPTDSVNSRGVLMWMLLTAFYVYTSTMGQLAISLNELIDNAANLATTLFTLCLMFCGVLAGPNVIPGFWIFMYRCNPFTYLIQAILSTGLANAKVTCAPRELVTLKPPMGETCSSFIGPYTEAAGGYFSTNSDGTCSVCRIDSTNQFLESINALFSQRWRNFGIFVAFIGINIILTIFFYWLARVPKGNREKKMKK
Benomyl/methotrexate resistance protein, sequence (P28873 whole entry): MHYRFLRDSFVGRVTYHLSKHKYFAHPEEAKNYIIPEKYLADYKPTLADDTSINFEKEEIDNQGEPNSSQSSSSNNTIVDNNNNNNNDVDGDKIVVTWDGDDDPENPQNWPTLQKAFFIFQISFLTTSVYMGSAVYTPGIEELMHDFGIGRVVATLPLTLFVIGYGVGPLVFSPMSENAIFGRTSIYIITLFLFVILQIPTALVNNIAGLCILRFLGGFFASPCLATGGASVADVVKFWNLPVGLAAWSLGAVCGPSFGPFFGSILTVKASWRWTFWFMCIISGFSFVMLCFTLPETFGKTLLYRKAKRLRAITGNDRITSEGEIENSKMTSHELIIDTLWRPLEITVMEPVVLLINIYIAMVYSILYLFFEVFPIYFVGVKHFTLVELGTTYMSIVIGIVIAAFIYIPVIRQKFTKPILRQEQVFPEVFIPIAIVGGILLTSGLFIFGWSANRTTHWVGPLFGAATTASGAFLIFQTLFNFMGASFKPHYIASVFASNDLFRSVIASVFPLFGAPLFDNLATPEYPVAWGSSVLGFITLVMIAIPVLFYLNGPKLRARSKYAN
Neuropeptides B/W receptor type 1, sequence (P48145 whole entry): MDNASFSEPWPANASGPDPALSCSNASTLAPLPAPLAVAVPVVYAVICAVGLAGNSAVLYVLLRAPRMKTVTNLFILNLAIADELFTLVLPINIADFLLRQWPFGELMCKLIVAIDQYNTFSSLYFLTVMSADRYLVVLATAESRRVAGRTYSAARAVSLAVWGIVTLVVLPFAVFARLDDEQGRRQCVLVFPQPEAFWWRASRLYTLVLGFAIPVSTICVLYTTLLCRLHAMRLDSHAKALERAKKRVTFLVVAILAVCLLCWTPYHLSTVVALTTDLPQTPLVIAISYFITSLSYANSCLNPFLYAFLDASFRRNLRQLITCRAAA
Dual specificity tyrosine-phosphorylation-regulated kinase 1B, sequence (Q9Y463 whole entry): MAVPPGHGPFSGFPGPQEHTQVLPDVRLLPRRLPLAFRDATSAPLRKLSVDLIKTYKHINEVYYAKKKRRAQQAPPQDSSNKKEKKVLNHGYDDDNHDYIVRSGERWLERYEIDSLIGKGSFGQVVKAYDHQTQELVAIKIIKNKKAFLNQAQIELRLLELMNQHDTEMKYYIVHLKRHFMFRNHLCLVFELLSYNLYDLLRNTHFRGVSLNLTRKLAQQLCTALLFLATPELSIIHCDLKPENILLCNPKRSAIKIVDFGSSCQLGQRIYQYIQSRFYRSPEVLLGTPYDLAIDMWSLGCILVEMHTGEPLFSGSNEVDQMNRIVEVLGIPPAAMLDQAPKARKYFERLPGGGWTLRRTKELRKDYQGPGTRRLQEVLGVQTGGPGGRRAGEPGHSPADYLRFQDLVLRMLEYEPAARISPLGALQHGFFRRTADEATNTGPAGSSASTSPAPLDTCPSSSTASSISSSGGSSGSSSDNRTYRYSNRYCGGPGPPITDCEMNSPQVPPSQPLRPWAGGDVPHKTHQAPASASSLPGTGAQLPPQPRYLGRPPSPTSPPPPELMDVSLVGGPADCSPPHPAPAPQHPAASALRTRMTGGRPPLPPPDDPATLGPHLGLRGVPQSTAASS
Tyrosine-protein kinase BTK, sequence (Q06187 whole entry): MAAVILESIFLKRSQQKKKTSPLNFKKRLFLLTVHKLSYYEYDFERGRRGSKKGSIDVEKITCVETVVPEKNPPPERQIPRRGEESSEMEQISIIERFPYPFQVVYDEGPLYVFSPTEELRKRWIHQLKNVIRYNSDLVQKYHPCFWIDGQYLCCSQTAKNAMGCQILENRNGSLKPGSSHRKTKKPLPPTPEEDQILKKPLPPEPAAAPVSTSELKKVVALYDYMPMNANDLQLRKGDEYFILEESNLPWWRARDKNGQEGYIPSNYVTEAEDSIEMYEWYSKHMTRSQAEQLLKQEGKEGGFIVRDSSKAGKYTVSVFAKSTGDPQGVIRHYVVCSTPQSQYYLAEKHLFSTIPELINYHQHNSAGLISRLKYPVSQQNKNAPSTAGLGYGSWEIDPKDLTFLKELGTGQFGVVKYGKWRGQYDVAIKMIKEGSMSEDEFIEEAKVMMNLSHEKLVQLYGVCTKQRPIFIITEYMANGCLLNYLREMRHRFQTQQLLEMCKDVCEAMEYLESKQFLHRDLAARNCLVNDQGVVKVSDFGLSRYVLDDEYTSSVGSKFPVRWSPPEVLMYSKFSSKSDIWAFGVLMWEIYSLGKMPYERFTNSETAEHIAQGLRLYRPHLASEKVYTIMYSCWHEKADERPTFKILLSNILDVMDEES
Cyclin-dependent kinase 9, sequence (P50750 whole entry): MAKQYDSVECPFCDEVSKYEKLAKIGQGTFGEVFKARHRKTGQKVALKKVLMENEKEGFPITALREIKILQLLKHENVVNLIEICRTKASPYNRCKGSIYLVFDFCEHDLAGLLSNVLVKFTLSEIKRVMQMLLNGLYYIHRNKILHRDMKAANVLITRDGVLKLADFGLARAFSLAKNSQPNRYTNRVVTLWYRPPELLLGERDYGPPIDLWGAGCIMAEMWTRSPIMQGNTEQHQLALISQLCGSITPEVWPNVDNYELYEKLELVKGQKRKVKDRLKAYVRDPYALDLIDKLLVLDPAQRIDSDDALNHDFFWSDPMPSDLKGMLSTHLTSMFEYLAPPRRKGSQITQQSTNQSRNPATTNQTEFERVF
Tyrosine-protein kinase Fyn, sequence (P06241 whole entry): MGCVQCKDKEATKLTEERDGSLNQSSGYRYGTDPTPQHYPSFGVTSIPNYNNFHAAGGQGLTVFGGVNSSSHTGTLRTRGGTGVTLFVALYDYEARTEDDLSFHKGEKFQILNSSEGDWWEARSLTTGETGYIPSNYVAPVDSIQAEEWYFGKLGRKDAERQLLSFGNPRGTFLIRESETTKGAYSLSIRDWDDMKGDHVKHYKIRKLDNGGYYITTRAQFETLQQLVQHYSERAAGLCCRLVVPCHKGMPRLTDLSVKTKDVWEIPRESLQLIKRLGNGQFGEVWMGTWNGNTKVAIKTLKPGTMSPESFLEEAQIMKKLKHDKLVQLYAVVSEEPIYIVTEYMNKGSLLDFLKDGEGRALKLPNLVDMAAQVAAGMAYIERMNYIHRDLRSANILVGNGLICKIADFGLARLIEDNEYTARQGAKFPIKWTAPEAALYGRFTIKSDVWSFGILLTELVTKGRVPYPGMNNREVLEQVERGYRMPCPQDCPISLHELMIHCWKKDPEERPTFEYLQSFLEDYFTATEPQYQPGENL
Melanin-concentrating hormone receptor 1, sequence (Q99705 whole entry): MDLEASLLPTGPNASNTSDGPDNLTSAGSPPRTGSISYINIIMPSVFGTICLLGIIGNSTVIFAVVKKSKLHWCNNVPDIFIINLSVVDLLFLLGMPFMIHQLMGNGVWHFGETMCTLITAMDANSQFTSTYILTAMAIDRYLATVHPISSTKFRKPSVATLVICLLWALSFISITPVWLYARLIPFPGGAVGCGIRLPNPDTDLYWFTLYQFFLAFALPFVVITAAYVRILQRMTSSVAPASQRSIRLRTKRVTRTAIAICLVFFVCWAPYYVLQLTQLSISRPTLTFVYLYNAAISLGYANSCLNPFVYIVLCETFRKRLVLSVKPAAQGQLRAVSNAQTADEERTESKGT

The IC50 is the midpoint of a concentration-inhibition curve. In the case of `CC1=NOC(=O)/C1=C/c1ccc(O)c(Br)c1`, the IC50 in experiment [1] was 3.98 µM (active); in [2] it was 4.77 µM (active).
By AC50 is commonly meant the midpoint of the concentration-response curve, whichever way the signal moves. On to `COc1ccc2sc(-c3ccccc3OC)c(-c3ccc(OCCN4CCCC4)cc3)c2c1`, for which, in experiment [3], the AC50 was 5.62 µM (active). In addition, in experiment [4], the IC50 was > 20 µM (inactive). Further, the EC50 in experiment [5] was 23.6 µM (active); in experiment [6], 0.958 µM (active); in [7], 0.87 µM (active); in experiment [8], 50.2 µM (active).
Turning to `N#CC(c1ccccc1)c1c(Cl)cnn(Cc2ccc3ccccc3c2)c1=O` (stereo not drawn), the half-maximal inhibitory concentration (IC50) in experiment [9] and in experiment [10] was 3.04 µM (active) throughout.
The Ki is the dissociation constant of the complex between target and ligand, obtained from inhibition or displacement. On to `CC(C)(C)c1cc(NC(=O)Nc2cccc3ccccc23)n(-c2cccc(C(=O)N(CCN)CCO)c2)n1`, for which the Ki in experiment [11] was > 6.31 µM (inactive); in experiment [12], 3.16 µM (active); in experiment [13], > 6.31 µM (inactive); in [14] it was > 6.31 µM (inactive); in [15], 0.794 µM (active); in experiment [16], 1.26 µM (active). Further, the Ki was 2.51 µM (active) in experiment [17], > 6.31 µM (inactive) in experiment [18], > 6.31 µM (inactive) in [19] and > 7.94 µM (inactive) in experiment [20].
As for `CC1c2cccn2CCN1Cc1nc2scc(-c3ccco3)c2c(=O)[nH]1` (stereo not drawn), the Ki is 3.16 µM (active) in experiment [21], 1.58 µM (active) in experiment [22] and 2.51 µM (active) in experiment [23].
